{
  "source": "paper doi:10.1101/2020.02.18.955294v1",
  "about": "(biorxiv, 2020)",
  "target": "NC1 (DGCR8 dimer) (Homo sapiens, UniProt Q8WYQ5, P351A)",
  "sequence (Q8WYQ5 276-751 P351A)": "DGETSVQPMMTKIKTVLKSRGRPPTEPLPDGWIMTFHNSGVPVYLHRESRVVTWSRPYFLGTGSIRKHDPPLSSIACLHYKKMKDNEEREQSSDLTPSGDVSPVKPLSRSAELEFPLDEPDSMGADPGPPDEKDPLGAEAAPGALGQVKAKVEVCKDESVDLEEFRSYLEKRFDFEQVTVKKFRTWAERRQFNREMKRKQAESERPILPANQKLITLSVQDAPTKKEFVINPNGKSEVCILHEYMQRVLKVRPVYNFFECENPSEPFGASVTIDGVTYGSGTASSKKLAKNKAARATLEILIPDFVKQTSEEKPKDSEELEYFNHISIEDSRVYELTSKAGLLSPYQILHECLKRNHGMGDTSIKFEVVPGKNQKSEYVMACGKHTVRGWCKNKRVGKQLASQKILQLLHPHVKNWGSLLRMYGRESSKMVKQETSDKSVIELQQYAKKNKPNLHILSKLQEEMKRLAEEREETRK",
  "assay": "biochemical",
  "data": [
    {"compound": "C=CC1=C(C)C2=Cc3c(C=C)c(C)c4[n]3[Fe]([Cl])[n]3c(c(C)c(CCC(=O)O)c3=CC3=NC(=C4)C(C)=C3CCC(=O)O)=CC1=N2", "note": "[Fe(III) heme]", "values": [
      {"measurement": "Kd", "value": "~5", "unit": "pM"}
    ]}
  ]
}
